Where two headings read alike, the source gives them in different places.
Key:
[1] = tested on: NCI/ADR-RES
[2] = tested on: Leukemia cell lines
[3] = tested on: UACC-257
[4] = tested on: U251
[5] = tested on: ACHN
[6] = tested on: panel of approximately sixty human tumor cell lines; experiment: NCI-60 human tumor cell lines screen (SRB), full panel; type: cell-based; conditions: for GI50: read-out: GI50, Total MG_MID; for Positive Cytostatic Effect: ratio of number of cell lines with percent growth from 0 to 50 to total number of cell lines
Procedure: Compounds 2a, 2c–f, 2h–l, 3, 5e, 5f were selected for antitumor activity which was performed according to the standard protocols of National Cancer Institute (NCI, Bethesda, MD, USA) Developmental Therapeutic Program (DTP). At the prescreening stage, the compounds were evaluated for antitumor activity at the concentration of 10 µM against a panel of approximately sixty cancer cell lines representing different types of cancer including leukemia, melanoma, lung, colon, CNS, ovarian, renal, prostate and breast cancers.
Among them, three compounds (2d, 2h, 2i) presented excellent cytotoxic and four derivatives (2d, 2h, 2i, 2k) cytostatic properties in one or more cell lines when applied at a concentration of 10 µM. […] The outcomes were calculated and presented in the form of three response parameters (GI50, TGI and LC50) for each cell line via growth percentage inhibition curves. […]
The primary anticancer assay was performed on a panel of approximately sixty human tumor cell lines derived from nine neoplastic diseases (leukemia, melanoma, lung, colon, CNS, ovarian, renal, prostate, and breast cancers), in accordance with the protocol of the National Cancer Institute Drug Evaluation Branch (Bethesda, MD, USA). Tested compounds were added to the culture at a single concentration (10^−5 M) and the cultures were incubated for 48 h. End-point determinations were made with a protein-binding dye, sulforhodamine B (SRB). Results for each tested compound were reported as the percentage of the growth of the treated cells when compared to the untreated control cells. The percentage of the growth was evaluated spectrophotometrically versus controls not treated with test agents. […] Using absorbance measurements [time zero (Tz), control growth in the absence of drug (C), and test growth in the presence of the drug (Ti)], the percentage growth was calculated for each drug concentration. Percentage growth inhibition was calculated as:[(Ti − Tz)/[…]] × 100(1) for concentrations for which Ti ≥ Tz, [(Ti − Tz)/Tz] × 100 for concentrations for which Ti < Tz. Dose-response parameters (GI50, TGI) were calculated for each compound. Growth inhibition of 50% (GI50) was calculated from [(Ti − Tz)/(C − Tz)] × 100 = 50, which is the drug concentration resulting in a 50% lower net protein increase in the treated cells (measured by SRB staining) as compared to the net protein increase seen in the control cells. The drug concentration resulting in total growth inhibition (TGI) was calculated from Ti = Tz. Values were calculated for each of these parameters if the level of activity was reached; however, if the effect was not reached or was excessive, the value for that parameter was expressed as more or less than the maximum or minimum concentration tested. The lowest values were obtained with the most sensitive cell lines. Compounds having GI50 values ≤ 100 μM were declared to be active. The selectivity index (SI) calculated by dividing the full panel MG_MID (full-panel mean-graph midpoint) (μM) of the compounds 2h and 2i by their individual subpanel MG_MID of a cell line (μM) was considered as a measure of compounds’ selectivity. Ratios between 3 and 6 mean moderate selectivity, ratios greater than 6 indicate high selectivity toward the corresponding cell line, while compounds not meeting either of these criteria are rated nonselective.

[7] = tested on: SK-MEL-2
[8] = tested on: SK-MEL-28
[9] = tested on: CCRF-CEM
[10] = tested on: HCC-2998
[11] = tested on: HS 578T
[12] = tested on: SN12C
[13] = tested on: OVCAR-5
[14] = tested on: MDA-MB-231/ATCC
[15] = tested on: COLO 205; type: cell-based; conditions: COLO 205, Colon cancer; for CC50: read-out: LC50 (the source's name)
[16] = tested on: Breast Cancer cell lines
[17] = tested on: SK-OV-3
[18] = tested on: BT-549
[19] = Homo sapiens, read-out: GI50, panel MG_MID
[20] = Homo sapiens, read-out: LC50, panel MG_MID
[21] = read-out: GI50, values range inside panel, Breast Cancer subpanel
[22] = 60 cell lines assay in one dose, 10 μM, 48 h

O=C(COc1ccc(Cl)cc1/C=c1\sc2ncnn2c1=O)Nc1ccc(Cl)cc1 [Compound 2h, (Z)-2-(4-Chloro-2-((6-oxothiazolo[3,2-b][1,2,4]triazol-5(6H)-ylidene)methyl)phenoxy)-N-(4-chlorophenyl)acetamide]
TGI ([1]; Breast Cancer): 41.68 µM
GI50 ([1]; Homo sapiens): 15.5 µM
CC50 ([1]; Homo sapiens, read-out: LC50): > 100 µM
GI50 [2, 19]: 1.92 µM
GI50 ([2]; Homo sapiens, read-out: GI50, values range inside panel): 1.35 to 2.69 µM
CC50 [2, 20]: 26.8 µM
CC50 ([2]; Homo sapiens, read-out: LC50, values range inside panel): 7.58 to 49 µM
TGI, panel MG_MID ([2]; Leukemia subpanel): 6.85 µM
TGI, values range inside panel ([2]; Leukemia subpanel): 3.16 to 14.45 µM
GI50 ([3]; Homo sapiens, UACC-257): 3.38 µM
CC50 ([3]; Homo sapiens, UACC-257, read-out: LC50): 38.9 µM
TGI ([3]; UACC-257, Melanoma): 15.13 µM
GI50 ([4]; Homo sapiens, U-251): 4.07 µM
CC50 ([4]; Homo sapiens, U-251, read-out: LC50): 38 µM
TGI ([4]; U251, CNS Cancer): 14.45 µM
GI50 ([5]; Homo sapiens): 12.6 µM
CC50 ([5]; Homo sapiens, read-out: LC50): 50.1 µM
TGI ([5]; Renal Cancer): 25.11 µM
activity at 10 µM ([6]; Homo sapiens, 60 cell lines assay in one dose, 10 μM, 48 h, read-out: Mean Growth, %): 29%
activity at 10 µM ([6]; Homo sapiens, 60 cell lines assay in one dose, 10 μM, 48 h, read-out: Range of Growth, %): -48 to 122%
GI50 ([6]; Homo sapiens, full panel average): 3.54 µM
CC50 ([6]; Homo sapiens, full panel average, read-out: LC50, Total MG_MID): 37.1 µM
TGI, Total MG_MID ([6]; full panel average): 12.88 µM
Positive Cytostatic Effect ([6]; one dose, 10 μM): 30/57
Positive Cytotoxic Effect ([6]; one dose, 10 μM, ratio of number of cell lines with percent growth of <0 to total number of cell lines): 12/57
GI50 ([7]; Homo sapiens, SK-MEL-2): 3.98 µM
CC50 ([7]; Homo sapiens, SK-MEL-2, read-out: LC50): 38.9 µM
TGI ([7]; SK-MEL-2, Melanoma): 13.80 µM
GI50 ([8]; Homo sapiens, SK-MEL-28): 6.16 µM
CC50 ([8]; Homo sapiens, SK-MEL-28, read-out: LC50): 51.3 µM
TGI ([8]; SK-MEL-28, Melanoma): 20.41 µM
GI50 ([9]; Homo sapiens): 1.35 µM
CC50 ([9]; Homo sapiens, read-out: LC50): 7.58 µM
TGI ([9]; Leukemia): 3.16 µM
TGI ([10]; HCC-2998, Colon cancer): 18.62 µM
GI50 ([10]; Homo sapiens, HCC 2998): 7.07 µM
CC50 ([10]; Homo sapiens, HCC 2998, read-out: LC50): 43.6 µM
TGI ([11]; HS 578T, Breast Cancer): 5.24 µM
GI50 ([11]; Homo sapiens, Hs-578T): 2.04 µM
CC50 ([11]; Homo sapiens, Hs-578T, read-out: LC50): 33.9 µM
GI50 ([12]; Homo sapiens): 1.62 µM
CC50 ([12]; Homo sapiens, read-out: LC50): 41.7 µM
TGI ([12]; Renal Cancer): 12.88 µM
GI50 ([13]; Homo sapiens, OVCAR-5): 11.2 µM
CC50 ([13]; Homo sapiens, OVCAR-5, read-out: LC50): 47.9 µM
TGI ([13]; OVCAR-5, Ovarian Cancer): 23.44 µM
GI50 ([14]; Homo sapiens, MDA-MB-231): < 0.01 µM
CC50 ([14]; Homo sapiens, MDA-MB-231, read-out: LC50): 75.9 µM
TGI ([14]; MDA-MB-231/ATCC, Breast Cancer): 11.48 µM
TGI [15]: 19.95 µM
GI50 ([15]; Homo sapiens): 7.58 µM
CC50 ([15]; Homo sapiens): 44.7 µM
TGI, panel MG_MID ([16]; Breast Cancer subpanel): 15.61 µM
TGI, values range inside panel ([16]; Breast Cancer subpanel): 4.07 to 41.68 µM
GI50 [16, 19]: 4.48 µM
CC50 [16, 20]: 46.1 µM
GI50 [16, 21]: 0.01 to 15.5 µM
GI50 ([17]; Homo sapiens, SK-OV-3): 15.5 µM
CC50 ([17]; Homo sapiens, SK-OV-3, read-out: LC50): 53.7 µM
TGI ([17]; SK-OV-3, Ovarian Cancer): 28.84 µM
TGI ([18]; BT-549, Breast Cancer): 8.51 µM
GI50 ([18]; Homo sapiens, BT-549): 2.34 µM
CC50 ([18]; Homo sapiens, BT-549, read-out: LC50): 35.5 µM

Ethyl(Z)-4-(3-(4-chloro-2-((6-oxothiazolo[3,2-b][1,2,4]triazol-5(6H)-ylidene)methyl)phenyl)propanamido)benzoate [Compound 2i]
GI50 ([1]; Breast Cancer): 21.9 µM
TGI ([1]; Breast Cancer): 67.60 µM
TGI, panel MG_MID ([2]; Leukemia subpanel): 51.55 µM
GI50 ([2]; read-out: GI50, panel MG_MID, Leukemia subpanel): 11.3 µM
GI50 ([2]; read-out: GI50, values range inside panel, Leukemia subpanel): 2.88 to 18.2 µM
GI50 ([3]; UACC-257, Melanoma): 10.5 µM
TGI ([3]; UACC-257, Melanoma): 25.70 µM
GI50 ([4]; U251, CNS Cancer): 6.6 µM
TGI ([4]; U251, CNS Cancer): 19.05 µM
GI50 ([5]; Renal Cancer): 15.5 µM
TGI ([5]; Renal Cancer): 28.84 µM
Mean Growth, % [6, 22]: 61.05%
Range of Growth, % [6, 22]: −22.54 to 122.94%
TGI, Total MG_MID ([6]; full panel average): 28.18 µM
GI50 ([6]; full panel average): 11 µM
Positive Cytostatic Effect ([6]; one dose, 10 μM): 17/58
GI50 ([7]; SK-MEL-2, Melanoma): 14.5 µM
TGI ([7]; SK-MEL-2, Melanoma): 33.11 µM
GI50 ([8]; SK-MEL-28, Melanoma): 12 µM
TGI ([8]; SK-MEL-28, Melanoma): 23.98 µM
GI50 ([9]; Leukemia): 2.88 µM
TGI ([9]; Leukemia): 9.99 µM
GI50 ([10]; HCC-2998, Colon cancer): 16.6 µM
TGI ([10]; HCC-2998, Colon cancer): 33.11 µM
GI50 ([11]; HS 578T, Breast Cancer): 3.54 µM
TGI ([11]; HS 578T, Breast Cancer): 19.49 µM
GI50 ([12]; Renal Cancer): 12.6 µM
TGI ([12]; Renal Cancer): 25.11 µM
GI50 ([13]; OVCAR-5, Ovarian Cancer): 15.5 µM
TGI ([13]; OVCAR-5, Ovarian Cancer): 30.19 µM
GI50 ([14]; MDA-MB-231/ATCC, Breast Cancer): 12.3 µM
TGI ([14]; MDA-MB-231/ATCC, Breast Cancer): 26.91 µM
GI50 [15]: 14.8 µM
TGI [15]: 31.62 µM
CC50 [15]: 67.6 µM
TGI, panel MG_MID ([16]; Breast Cancer subpanel): 30.29 µM
GI50 ([16]; read-out: GI50, panel MG_MID, Breast Cancer subpanel): 9.72 µM
GI50 [16, 21]: 3.54 to 21.9 µM
GI50 ([17]; SK-OV-3, Ovarian Cancer): 19.9 µM
TGI ([17]; SK-OV-3, Ovarian Cancer): 35.48 µM
GI50 ([18]; BT-549, Breast Cancer): 3.8 µM
TGI ([18]; BT-549, Breast Cancer): 15.84 µM
